Results taken from PubChem BioAssay (NCI).
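Step 1: Grow cells in 96-well plates. Step 2: Expose to compound for 48 hours at 5 concentrations. Step 3: Interpolate endpoints linearly; if unreached, use highest concentration. Definition used: TGI = concentration required for complete inhibition of growth.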

What was measured:
Experiment in all cases: growth of human tumour cells (NCI), 48 h
786-0 renal = system: 786-0 renal
A498 renal = system: A498 renal
A549 NSCLC = system: A549 NSCLC
ACHN renal = system: ACHN renal
BT-549 breast = system: BT-549 breast
CAKI-1 renal = system: CAKI-1 renal
CCRF-CEM leukemia = system: CCRF-CEM leukemia
COLO 205 colon = system: COLO 205 colon
DU-145 prostate = system: DU-145 prostate
EKVX NSCLC = system: EKVX NSCLC
HCC-2998 colon = system: HCC-2998 colon
HCT-116 colon = system: HCT-116 colon
HCT-15 colon = system: HCT-15 colon
HL-60(TB) leukemia = system: HL-60(TB) leukemia
HOP-62 NSCLC = system: HOP-62 NSCLC
HS 578T breast = system: HS 578T breast
HT29 colon = system: HT29 colon
IGROV1 ovarian = system: IGROV1 ovarian
K-562 leukemia = system: K-562 leukemia
KM12 colon = system: KM12 colon
LOX IMVI melanoma = system: LOX IMVI melanoma
M14 melanoma = system: M14 melanoma
MALME-3M melanoma = system: MALME-3M melanoma
MCF7 breast = system: MCF7 breast
MDA-MB-435 = system: MDA-MB-435
MDA-N = system: MDA-N
MOLT-4 leukemia = system: MOLT-4 leukemia
NCI-H226 lung = system: NCI-H226 lung
NCI-H23 lung = system: NCI-H23 lung
NCI-H460 lung = system: NCI-H460 lung
NCI-H522 lung = system: NCI-H522 lung
NCI/ADR-RES ovarian = system: NCI/ADR-RES ovarian
OVCAR-3 ovarian = system: OVCAR-3 ovarian
OVCAR-4 ovarian = system: OVCAR-4 ovarian
OVCAR-5 ovarian = system: OVCAR-5 ovarian
OVCAR-8 ovarian = system: OVCAR-8 ovarian
PC-3 prostate = system: PC-3 prostate
RPMI-8226 leukemia = system: RPMI-8226 leukemia
RXF 393 renal = system: RXF 393 renal
SF-268 CNS = system: SF-268 CNS
SF-295 CNS = system: SF-295 CNS
SF-539 CNS = system: SF-539 CNS
SK-MEL-2 melanoma = system: SK-MEL-2 melanoma
SK-MEL-28 melanoma = system: SK-MEL-28 melanoma
SK-MEL-5 melanoma = system: SK-MEL-5 melanoma
SN12C renal = system: SN12C renal
SNB-19 CNS = system: SNB-19 CNS
SNB-75 CNS = system: SNB-75 CNS
SR leukemia = system: SR leukemia
SW-620 colon = system: SW-620 colon
T-47D breast = system: T-47D breast
TK-10 renal = system: TK-10 renal
U251 CNS = system: U251 CNS
UACC-257 melanoma = system: UACC-257 melanoma
UACC-62 melanoma = system: UACC-62 melanoma
UO-31 renal = system: UO-31 renal
HOP-92 NSCLC = system: HOP-92 NSCLC
SK-OV-3 ovarian = system: SK-OV-3 ovarian

Measured: TGI

O=c1[nH]nc(Cc2ccc([N+](=O)[O-])cc2)[nH]1
> 100 µM: 786-0 renal | A498 renal | A549 NSCLC | ACHN renal | BT-549 breast | CAKI-1 renal | CCRF-CEM leukemia | COLO 205 colon | DU-145 prostate | EKVX NSCLC | HCC-2998 colon | HCT-116 colon | HCT-15 colon | HL-60(TB) leukemia | HOP-62 NSCLC | HS 578T breast | HT29 colon | IGROV1 ovarian | K-562 leukemia | KM12 colon | LOX IMVI melanoma | M14 melanoma | MALME-3M melanoma | MCF7 breast | MDA-MB-435 | MDA-N | MOLT-4 leukemia | NCI-H226 lung | NCI-H23 lung | NCI-H460 lung | NCI-H522 lung | NCI/ADR-RES ovarian | OVCAR-3 ovarian | OVCAR-4 ovarian | OVCAR-5 ovarian | OVCAR-8 ovarian | PC-3 prostate | RPMI-8226 leukemia | RXF 393 renal | SF-268 CNS | SF-295 CNS | SF-539 CNS | SK-MEL-2 melanoma | SK-MEL-28 melanoma | SK-MEL-5 melanoma | SN12C renal | SNB-19 CNS | SNB-75 CNS | SR leukemia | SW-620 colon | T-47D breast | TK-10 renal | U251 CNS | UACC-257 melanoma | UACC-62 melanoma | UO-31 renal

O=[N+]([O-])c1ccc(-c2nc3ccccc3o2)cc1
> 100 µM: 786-0 renal | A498 renal | A549 NSCLC | ACHN renal | BT-549 breast | CAKI-1 renal | CCRF-CEM leukemia | COLO 205 colon | DU-145 prostate | EKVX NSCLC | HCC-2998 colon | HCT-116 colon | HCT-15 colon | HOP-62 NSCLC | HOP-92 NSCLC | HS 578T breast | IGROV1 ovarian | K-562 leukemia | KM12 colon | LOX IMVI melanoma | M14 melanoma | MALME-3M melanoma | MCF7 breast | MDA-MB-435 | MDA-N | MOLT-4 leukemia | NCI-H226 lung | NCI-H23 lung | NCI-H460 lung | NCI-H522 lung | NCI/ADR-RES ovarian | OVCAR-3 ovarian | OVCAR-4 ovarian | OVCAR-5 ovarian | OVCAR-8 ovarian | PC-3 prostate | RPMI-8226 leukemia | RXF 393 renal | SF-268 CNS | SF-295 CNS | SF-539 CNS | SK-MEL-2 melanoma | SK-MEL-28 melanoma | SK-MEL-5 melanoma | SK-OV-3 ovarian | SN12C renal | SNB-19 CNS | SNB-75 CNS | SR leukemia | SW-620 colon | T-47D breast | TK-10 renal | U251 CNS | UACC-257 melanoma | UACC-62 melanoma | UO-31 renal
